Test results published in patent US7071383B2, “Chimeric genes and methods for increasing the lysine and threonine content of the seeds of plants” (E. I. du Pont de Nemours and Company, priority 1992, dated 2006).
Several values for one entry are separate records, joined by “and”; a condition that tells them apart may be missing. Identical values can stand only once.

Legend:
tobacco DHDPS = assay: DHDPS enzyme assay of plant extracts, sensitivity to lysine; assay type: biochemical
Experimental: The leaf extracts were assayed for DHDPS activity as described in Example 4.
To test this hypothesis, total protein extracts were prepared from mature seeds and assayed for DHDPS activity. Approximately 30-40 mg of seeds were put into a 1.5 mL disposable plastic microfuge tube and ground in 0.25 mL of 50 mM Tris-HCl, 50 mM NaCl, 1 mM EDTA (TNE). The grinding was done using a motorized grinder with disposable plastic shafts designed to fit into the microfuge tube. The resultant suspensions were centrifuged for 5 min at room temperature in a microfuge to remove particulates. Approximately 0.1 mL of aqueous supernatant was removed between the pelleted material and the upper oil phase. The seed extracts were assayed for DHDPS activity as described in Example 4.
To assay for expression of the chimeric genes in leaves of the transformed plants, protein was extracted as described in Example 7 for AKIII, and as described in Example 9 for DHDPS. The leaf extracts were assayed for DHDPS activity as described in Examples 4 and 9. […] Extracts were characterized immunologically for expression of AKIII and DHDPS proteins via Western blots as described in Examples 7 and 10.

Wild type AKIII = target: T1, Wild type AKIII (Escherichia coli, UniProt P08660, G401A); assay: AK enzyme assay, sensitivity to L-lysine; assay type: biochemical, E. coli
T1 construct: the coding region of the wild type E. coli lysC gene, which encodes AKIII; made in house; host or cells: E. coli BL21(DE3), supernatant of crude extract
Experimental: (§1) AK activity was assayed as shown below:
(§2) Assay mix (for 12 assay tubes): • 4.5 mL H2O • 1.0 mL 8M KOH • 1.0 mL 8M NH2OH-HCl • 1.0 mL IM Tris-HCl pH 8.0 • 0.5 mL 0.2M ATP (121 mg/mL in 0.2M NaOH) • 50 μL 1M MgSO4
(§3) Each 1.5 mL eppendorf assay tube contained: • 0.64 mL assay mix • 0.04 mL 0.2 M L-aspartic acid or 0.04 mL H2O • 0.0005-0.12 mL extract • H2O to total volume 0.8 mL
(§4) Assay tubes were incubated at 30° C. for desired time (10-60 min). Then 0.4 mL FeCl3 reagent (10% w/v FeCl3, 3.3% trichloroacetic acid, 0.7 M HCl) was added and the material centrifuged for 2 min in an eppendorf centrifuge. The supernatant was decanted. The OD was read at 540 nm and compared to the aspartyl-hydroxamate standard.
(§5) Approximately 80% of the AKIII activity was in the supernatant fraction. The specific activity of wild type and mutant crude extracts was 5-7 μM product per min per milligram total protein. Wild type AKIII was sensitive to the presence of L-lysine in the assay.

AKIII-M4 = target: T2, AKIII-M4 (Escherichia coli, UniProt P08660, G401A/T352I); assay: AK enzyme assay, sensitivity to L-lysine; assay type: biochemical, E. coli; conditions: 15 mM L-lysine
T2 construct: made in house; host or cells: E. coli BL21(DE3), crude extract
Experimental: as §1, §2, §3, §4, §5

AKIII-M2 = target: T3, AKIII-M2 (Escherichia coli, UniProt P08660, G401A/M318I); assay: AK enzyme assay, sensitivity to L-lysine; assay type: biochemical, E. coli; conditions: 15 mM L-lysine
T3 construct: made in house; host or cells: E. coli BL21(DE3), crude extract
Experimental: as §1, §2, §3, §4, §5

AKIII-M3 = target: T4, AKIII-M3 (Escherichia coli, UniProt P08660, G401A/T352I); assay: AK enzyme assay, sensitivity to L-lysine; assay type: biochemical, E. coli; conditions: 15 mM L-lysine
T4 construct: made in house; host or cells: E. coli BL21(DE3), crude extract
Experimental: as §1, §2, §3, §4, §5

E. coli DHDPS = target: T5, E. coli DHDPS (Escherichia coli, UniProt P0A6L2, F2V); assay: biochemical; assay type: biochemical
T5 construct: the chloroplast targeting signal fused to the entire ecodapA coding region; expressed in transfected cells; host or cells: transgenic tobacco plants, leaf extracts (35S promoter) or mature seed extracts (phaseolin promoter)
Experimental: (§6) DHDPS enzyme activity was assayed as follows: Assay mix (for 10×1.0 mL assay tubes or 40×0.25 mL for microtiter dish); made fresh, just before use:
(§7) Color allowed to develop for 30-60 min. Precipitate spun down in eppendorf centrifuge. OD540 vs 0 min read as blank. For MicroAssay, aliquot 0.2 mL into microtiter well and read at OD530.
For Corynebacterium DHDPS, the activity was measured in the supernatant fraction of uninduced extracts, rather than induced extracts.

[1] = test system: Gif106M1 transformed with pBT436; assay: Growth inhibition by lysine in M9 media; assay type: cell-based, E. coli
Experimental: Addition of lysine (or diaminopimelate which is readily converted to lysine in vivo) at a concentration of approximately 0.2 mM to the growth medium inhibits the growth of Gif106M1 transformed with pBT436. M9 media [see Sambrook et al. (1989) Molecular Cloning, A Laboratory Manual, Cold Spring Harbor Laboratory Press] supplemented with the arginine and isoleucine, required for Gif106M1 growth, and ampicillin, to maintain selection for the pBT436 plasmid, was used. This inhibition is reversed by addition of threonine plus methionine to the growth media. […] This property of pBT436-transformed Gif106M1 was used to select for mutations in lysC that encoded lysine-insensitive AKIII.

Corynebacterium DHDPS = target: T6, Corynebacterium DHDPS (Corynebacterium glutamicum, UniProt P19808); assay: DHDPS enzyme assay, sensitivity to L-lysine; assay type: biochemical; conditions: 70 mM L-lysine
T6 construct: made in house; host or cells: E. coli BL21(DE3), supernatant of uninduced extract
Experimental: as §6, §7
E. coli DHDPS was sensitive to the presence of L-lysine in the assay. Fifty percent inhibition was found at a concentration of about 0.5 mM. For Corynebacterium DHDPS, the activity was measured in the supernatant fraction of uninduced extracts, rather than induced extracts. Enzyme activity was about 4 OD530 units per min per milligram protein in a 0.25 mL assay.

DE126 = assay: Growth inhibition by L-lysine in synthetic medium; assay type: cell-based, E. coli
Experimental: (4) This step involves production of a male derivative of strain DE125. Strain DE125 was mated with the male strain AB1528 [F′16/delta(gpt-proA)62, lacY1 or lacZ4, glnV44, galK2 rac^−(?), hisG4, rfbd1, mgl-51, kdgK51(?), ilvC7, argE3, thi-1] (E. coli Genetic Stock Center #1528) by the method of conjugation. F′16 carries the ilvGMEDAYC gene cluster. The two strains were cross streaked on rich medium permissive for the growth of each strain. After incubation, the plate was replica plated to a synthetic medium containing tetracycline, arginine, vitamin B1 and glucose. DE125 cannot grow on this medium because it cannot synthesize isoleucine. Growth of AB1528 is prevented by the inclusion of the antibiotic tetracycline and the omission of proline and histidine from the synthetic medium. A patch of cells grew on this selective medium. These recombinant cells underwent single colony isolation on the same medium. The phenotype of one clone was determined to be Ilv^+, Arg^−, TetR, Lysine-sensitive, male specific phage (MS2)-sensitive, consistent with the simple transfer of F′16 from AB1528 to DE125. This clone was designated DE126 and has the genotype F′16/malE52::Tn10, arg^−, ilvA296, thrA1101, metL100, lysC^+, λ^−, rpsL9, malT1, xyl-7, mtl-2, thi-1?, supE44?. It is inhibited by 20 μg/mL of L-lysine in a synthetic medium.

T1 sequence (P08660 other isoform, or with tags, fused parts or gaps G401A): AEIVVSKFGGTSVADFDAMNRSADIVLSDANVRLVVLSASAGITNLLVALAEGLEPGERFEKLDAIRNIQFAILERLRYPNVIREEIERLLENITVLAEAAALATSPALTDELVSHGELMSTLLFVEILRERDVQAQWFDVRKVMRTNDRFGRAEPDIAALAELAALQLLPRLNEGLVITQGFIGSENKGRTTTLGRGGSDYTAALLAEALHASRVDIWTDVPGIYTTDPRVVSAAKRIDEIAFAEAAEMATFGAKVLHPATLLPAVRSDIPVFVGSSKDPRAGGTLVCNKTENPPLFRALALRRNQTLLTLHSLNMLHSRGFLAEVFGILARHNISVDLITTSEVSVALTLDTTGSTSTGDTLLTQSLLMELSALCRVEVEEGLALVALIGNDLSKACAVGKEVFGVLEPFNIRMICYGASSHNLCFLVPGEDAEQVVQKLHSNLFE
T5 sequence (P0A6L2 whole entry F2V, the tested form may be a part): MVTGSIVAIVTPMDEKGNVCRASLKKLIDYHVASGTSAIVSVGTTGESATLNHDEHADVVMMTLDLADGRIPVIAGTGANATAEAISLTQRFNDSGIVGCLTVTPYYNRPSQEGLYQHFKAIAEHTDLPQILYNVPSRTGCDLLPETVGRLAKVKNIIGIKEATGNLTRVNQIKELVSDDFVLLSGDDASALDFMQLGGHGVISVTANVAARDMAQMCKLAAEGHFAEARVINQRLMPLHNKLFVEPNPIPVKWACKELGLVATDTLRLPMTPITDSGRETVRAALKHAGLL
T6 sequence (P19808 other isoform, or with tags, fused parts or gaps): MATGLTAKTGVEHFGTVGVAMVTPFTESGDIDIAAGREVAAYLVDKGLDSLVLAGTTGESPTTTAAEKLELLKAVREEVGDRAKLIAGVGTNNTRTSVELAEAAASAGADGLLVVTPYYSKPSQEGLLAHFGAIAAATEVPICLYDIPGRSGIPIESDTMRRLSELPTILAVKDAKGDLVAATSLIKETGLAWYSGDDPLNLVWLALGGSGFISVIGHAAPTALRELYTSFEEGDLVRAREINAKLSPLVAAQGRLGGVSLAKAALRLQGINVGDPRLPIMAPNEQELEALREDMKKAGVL
T3 sequence (P08660 other isoform, or with tags, fused parts or gaps M318I/G401A): as the sequence (P08660 other isoform, or with tags, fused parts or gaps G401A) above, with M317I counted along it
T2 sequence (P08660 other isoform, or with tags, fused parts or gaps T352I/G401A): as the sequence (P08660 other isoform, or with tags, fused parts or gaps G401A) above, with T351I counted along it
T4 sequence (P08660 other isoform, or with tags, fused parts or gaps T352I/G401A): as the sequence (P08660 other isoform, or with tags, fused parts or gaps G401A) above, with T351I counted along it

In the case of NCCCC[C@H](N)C(=O)O [L-lysine], the inhibition by lysine (tobacco DHDPS; 0.1 mM lysine, leaf extracts) is reported as “completely inhibited”, the inhibition by lysine (tobacco DHDPS; 0.4 mM lysine, seed extracts) is reported as “completely inhibited” and the “inhibition of wild type AKIII” value (Wild type AKIII; 1 mM lysine) is reported as greater than 90%. The IC50 (Wild type AKIII; L-lysine concentration for fifty percent inhibition of AKIII, crude extract) was ~400 µM and 300 to 400 µM, the “inhibition by L-lysine” value (AKIII-M4) was “not inhibited at all” and the “inhibition by L-lysine” value (AKIII-M2) was “not inhibited at all”. The “inhibition by L-lysine” value (AKIII-M3) was “not inhibited at all”, the IC50 (E. coli DHDPS) was roughly 500 µM and the activity retained (E. coli DHDPS; 0.1 mM lysine, leaf extracts) was 80-90%. For the same compound, the activity retained (E. coli DHDPS; 0.4 mM lysine, seed extracts) was “about 50%”, the “fold less sensitive to inhibition by lysine than a typical plant DHDPS” value (E. coli DHDPS; vs wheat germ DHDPS) was “about 20 fold” and the “concentration in growth medium that inhibits growth” value [1] was “approximately 0.2 mM”. For the same compound, the “inhibition by L-lysine” value (Corynebacterium DHDPS) was “not inhibited at all” and the “concentration that inhibits growth” value (DE126) was 20 µg/mL.
